Earlier results on one substance are cited in patent US12036313B2, “Personal lubricants comprising lambda-carrageenan” (LANVIRA, LLC, priority 2018, dated 2024).

The data set concerns HPV. Conditions: in vitro and in vivo.

As to lambda-carrageenan, the “Activity against HPV” value is reported as “active against HPV”.
